Values quoted from earlier work, collected in US20110301189A1, “STABLE PHARMACEUTICAL COMPOSITIONS OF RAPAMYCIN ESTERS” (FRESENIUS KABI ONCOLOGY LTD., priority 2010, published 2011).

Settings: aqueous solvents

- aqueous solubility: less than 1 μg/ml
SMILES: COC1CC2CCC(C)C(O)(O2)C(=O)C(=O)N2CCCCC2C(=O)OC(C(C)CC2CCC(OC(=O)C(C)(CO)CO)C(OC)C2)CC(=O)C(C)/C=C(\C)C(O)C(OC)C(=O)C(C)CC(C)/C=C/C=C/C=C/1C (stereo not shown) [Rapamycin 42-ester with 3-hydroxy-2-(hydroxymethyl)-2-methylpropionic acid]
